We go through 21 compounds from patent publication US20220380338A1, “CYCLOALKYL 3-OXOPIPERAZINE CARBOXAMIDES AND CYCLOHETEROALKYL 3-OXOPIPERAZINE CARBOXAMIDES AS NAV1.8 INHIBITORS” (Merck Sharp & Dohme LLC, priority 2021, published 2022).

A word on the IC50: it is the midpoint of a concentration-inhibition curve.

In the assay the target is T1, human NaV1.8 (Homo sapiens, UniProt Q9Y5Y9).
T1 construct: expressed in transfected cells
T1 sequence (Q9Y5Y9 whole entry): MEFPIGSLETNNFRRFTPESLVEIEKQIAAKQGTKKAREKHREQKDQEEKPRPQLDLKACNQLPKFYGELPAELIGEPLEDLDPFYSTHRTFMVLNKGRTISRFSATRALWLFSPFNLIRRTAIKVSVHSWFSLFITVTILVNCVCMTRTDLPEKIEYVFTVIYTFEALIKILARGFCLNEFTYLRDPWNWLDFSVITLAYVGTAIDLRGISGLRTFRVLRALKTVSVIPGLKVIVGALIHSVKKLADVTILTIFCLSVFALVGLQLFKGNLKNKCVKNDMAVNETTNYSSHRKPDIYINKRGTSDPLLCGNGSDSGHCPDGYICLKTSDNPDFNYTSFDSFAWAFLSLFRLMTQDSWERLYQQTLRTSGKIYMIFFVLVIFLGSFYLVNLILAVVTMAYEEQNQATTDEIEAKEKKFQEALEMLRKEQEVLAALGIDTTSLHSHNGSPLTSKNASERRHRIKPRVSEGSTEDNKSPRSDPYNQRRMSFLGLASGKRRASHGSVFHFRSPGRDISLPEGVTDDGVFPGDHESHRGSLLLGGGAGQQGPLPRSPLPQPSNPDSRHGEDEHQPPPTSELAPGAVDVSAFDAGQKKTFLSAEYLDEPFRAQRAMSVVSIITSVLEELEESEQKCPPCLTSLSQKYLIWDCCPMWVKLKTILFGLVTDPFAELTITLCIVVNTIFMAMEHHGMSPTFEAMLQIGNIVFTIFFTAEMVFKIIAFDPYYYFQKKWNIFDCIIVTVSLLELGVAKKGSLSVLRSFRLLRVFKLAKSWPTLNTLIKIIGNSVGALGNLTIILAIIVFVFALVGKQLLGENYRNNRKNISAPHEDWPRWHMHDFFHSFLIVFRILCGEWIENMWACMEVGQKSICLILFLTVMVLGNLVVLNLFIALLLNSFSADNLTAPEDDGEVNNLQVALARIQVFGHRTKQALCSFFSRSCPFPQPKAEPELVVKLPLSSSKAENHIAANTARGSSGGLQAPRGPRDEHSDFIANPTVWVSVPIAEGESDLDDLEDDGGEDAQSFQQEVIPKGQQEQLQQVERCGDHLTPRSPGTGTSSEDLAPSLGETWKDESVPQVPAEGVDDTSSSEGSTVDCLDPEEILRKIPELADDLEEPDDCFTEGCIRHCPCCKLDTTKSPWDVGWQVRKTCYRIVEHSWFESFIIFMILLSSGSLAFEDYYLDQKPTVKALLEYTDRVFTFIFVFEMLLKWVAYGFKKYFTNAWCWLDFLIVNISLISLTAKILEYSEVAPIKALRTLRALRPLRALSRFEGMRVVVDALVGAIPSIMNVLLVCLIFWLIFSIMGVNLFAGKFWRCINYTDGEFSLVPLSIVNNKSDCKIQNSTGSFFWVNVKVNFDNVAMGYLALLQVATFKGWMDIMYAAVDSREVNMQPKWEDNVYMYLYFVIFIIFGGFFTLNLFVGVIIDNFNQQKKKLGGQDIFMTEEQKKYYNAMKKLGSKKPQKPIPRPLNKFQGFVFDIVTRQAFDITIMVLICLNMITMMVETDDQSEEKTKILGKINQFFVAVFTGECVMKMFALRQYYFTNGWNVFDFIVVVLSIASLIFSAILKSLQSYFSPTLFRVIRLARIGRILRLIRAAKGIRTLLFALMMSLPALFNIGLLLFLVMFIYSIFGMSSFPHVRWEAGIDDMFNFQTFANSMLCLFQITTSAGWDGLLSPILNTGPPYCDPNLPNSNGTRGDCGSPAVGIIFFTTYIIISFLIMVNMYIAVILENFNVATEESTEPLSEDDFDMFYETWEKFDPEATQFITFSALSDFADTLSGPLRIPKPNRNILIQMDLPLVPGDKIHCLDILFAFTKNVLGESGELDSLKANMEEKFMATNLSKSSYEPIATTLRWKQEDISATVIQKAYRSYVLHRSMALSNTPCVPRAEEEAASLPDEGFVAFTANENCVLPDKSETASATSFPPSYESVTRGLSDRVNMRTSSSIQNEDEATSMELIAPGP
In words: Nav1.8 Qube® Assay (automated 384-well patch-clamp, inhibition of sodium current). Type of assay: cell-based. The settings on record: human NaV1.8 channels stably expressed in HEK 293 cells, room temperature. As to the method: Compounds were tested on human NaV1.8 and NaV1.5 channels stably expressed in human embryo kidney (HEK) 293 cells. Sodium current measurements on Qube® were conducted as follows: automated 384-well patch-clamp assays on the Qube® platform (Sophion Biosciences) were used to measure the inhibition of sodium flow through human NaV1.8 and NaV1.5 channels. Whole-cell voltage-clamp recordings were performed in QChips® (Sophion Biosciences) at room temperature. NaV1.8 current measurements on Qube® were obtained as follows: NaV1.8 currents were elicited with a 10 second 1 Hertz (Hz) pulse train from a holding potential of −90 millivolts (mV), delivered to the cells once per minute in the control condition (DMSO only) and after compound addition. The 1 hertz pulse train stimulation consisted of ten test pulses to 10 millivolt (mV) for 20 milliseconds (ms), each of which was followed by a 980 millisecond repolarization to −67 millivolts. At the end of the 10 second pulse train stimulation, a 5 second hyperpolarization step to −100 millivolt (mV) was used to recover NaV1.8 from fast inactivation. The peak currents elicited by the 1st and 10th test pulses were used to determine IC50 values for resting inhibition and inactivated state inhibition. NaV1.5 current measurements on Qube® were obtained as follows: NaV1.5 currents were elicited with a 20 second 3 Hertz pulse train in the control condition (DMSO only) and after compound addition. The pulse train consisted of sixty 20 millisecond test pulses to 0 millivolt from a holding potential of −80 millivolt (mV). The average peak currents elicited by the last 3 test pulses were used to determine IC50 values for NaV1.5 inhibition.
The following buffers were used for the Qube® recordings: External buffer for NaV1.8 Qube® recording: 150 NaCl, 2 CaCl2, 5 KCl, 1 Mg Cl2, 10 HEPES, 12 Dextrose; External buffer for Qube® NaV1.5 recording: 120 N-Methyl-D-Glucamine, 40 NaCl, 1 KCl, 2.7 CaCl2, 5 HEPES, 0.5 MgCl2; and Internal buffer for Qube® recording: 120 CsF, 30 CsCl, 10 EGTA, 5 HEPES, 5 NaF, 2 MgCl2.
For all Qube® experiments offline analysis was used to determine percent inhibition as a function of drug concentration. IC50 values were determined by fitting to the Hill equation.
A general note: The patch-clamp technique gives a direct electrical read-out from membranes.
As for `C[C@@H]1C(=O)NCCN1C(=O)NC(c1ccc(F)c(Cl)c1F)C1CC2(C1)CC2(F)F` (single isomer, unassigned) [Example 22A, (2R)-N-((R or S)-(3-chloro-2,4-difluoro-phenyl)(trans or cis-1,1-difluoro-spiro[2,3]-hexan-5-yl)methyl)-2-methyl-3-oxopiperazine-1-carboxamide], half-maximal inhibition (IC50) was put at 2.9 nM.

Compound `C[C@@H]1C(=O)NCCN1C(=O)NC(c1ccc(F)c(Cl)c1F)C1CC2(C1)CC2(F)F` (single isomer, unassigned) [Example 22B, (2R)-N-((R or S)-(3-chloro-2,4-difluoro-phenyl)(cis or trans-1,1-difluoro-spiro[2,3]-hexan-5-yl)methyl)-2-methyl-3-oxopiperazine-1-carboxamide] had an IC50 of 5.89 nM.

In the case of `C[C@@H]1C(=O)NCCN1C(=O)NC(c1ccc(F)c(Cl)c1F)C1CC2(C1)CC2(F)F` (single isomer, unassigned) [Example 22C, (2R)-N-((S or R)-(3-chloro-2,4-difluoro-phenyl)(trans or cis-1,1-difluoro-spiro[2.3]-hexan-5-yl)methyl)-2-methyl-3-oxopiperazine-1-carboxamide], the IC50 was determined as 84.5 nM.

`C[C@@H]1C(=O)NCCN1C(=O)NC(c1ccc(F)c(Cl)c1F)C1CC2(C1)CC2(F)F` (single isomer, unassigned) [Example 22D, (2R)-N-((So or R)-(3-chloro-2,4-difluoro-phenyl)(cis or trans-1,1-difluoro-spiro[2.3]-hexan-5-yl)methyl)-2-methyl-3-oxopiperazine-1-carboxamide] registered an IC50 of 85.2 nM.

With `C[C@@H]1C(=O)NCCN1C(=O)NC(c1ccc(F)c(Cl)c1F)C1CC2(C1)CC(F)(F)C2` (single isomer, unassigned) [Example 23, (2R)-N-((R or S)-(3-chloro-2,4-difluoro-phenyl)(6,6-difluoro-spiro[3.3]heptan-2-yl)methyl)-2-methyl-3-oxopiperazine-1-carboxamide], the IC50 amounted to 1.16 nM.

In turn, `C[C@@H]1C(=O)NCCN1C(=O)NC(c1ccc(F)c(Cl)c1F)C1CC(F)(F)C1` (single isomer, unassigned) [Example 24A, (2R)-N-((R or S)-(3-chloro-2,4-difluoro-phenyl)(3,3-difluoro-cyclobutyl)methyl)-2-methyl-3-oxopiperazine-1-carboxamide] displayed an IC50 of 2630 nM.

`C[C@@H]1C(=O)NCCN1C(=O)NC(c1ccc(F)c(Cl)c1F)C1CC(F)(F)C1` (single isomer, unassigned) [Example 24B, (2R)-N-((S or R)-(3-chloro-2,4-difluoro-phenyl)(3,3-difluoro-cyclobutyl)methyl)-2-methyl-3-oxopiperazine-1-carboxamide] displayed an IC50 of 29.1 nM.

Compound `C=C1CC(C(NC(=O)N2CCNC(=O)[C@H]2C)c2ccc(F)c(Cl)c2F)C1` (single isomer, unassigned) [Example 25A, (2R)-N-((R or S)-(3-chloro-2,4-difluoro-phenyl)(3-methylene-cyclobutyl)methyl)-2-methyl-3-oxopiperazine-1-carboxamide] returned an IC50 of 10.4 nM.

The compound `C=C1CC(C(NC(=O)N2CCNC(=O)[C@H]2C)c2ccc(F)c(Cl)c2F)C1` (single isomer, unassigned) [Example 25B, (2R)-N-((S or R)-(3-chloro-2,4-difluoro-phenyl)(3-methylene-scyclobutyl)methyl)-2-methyl-3-oxopiperazine-1-carboxamide] showed an IC50 of 652 nM.

Compound `O=C1NCCN(C(=O)N[C@H](c2ccc(F)c(Cl)c2F)[C@H]2C[C@H](C(F)(F)F)C2)C1C1CC1` (single isomer, unassigned) [Example 27A, (R or S)—N—((S)-(3-chloro-2,4-difluorophenyl)(trans-3-(trifluoromethyl)cyclobutyl)methyl)-2-cyclopropyl-3-oxopiperazine-1-carboxamide] gave an IC50 of 0.8 nM.

On to `O=C1NCCN(C(=O)N[C@H](c2ccc(F)c(Cl)c2F)[C@H]2C[C@H](C(F)(F)F)C2)C1C1CC1` (single isomer, unassigned) [Example 27B, (S or R)—N—((S)-(3-chloro-2,4-difluorophenyl)(trans-3-(trifluoromethyl)cyclobutyl)methyl)-2-cyclopropyl-3-oxopiperazine-1-carboxamide], for which the IC50 was determined as 107 nM. Compared with the last compound, the IC50 is about 130-fold higher.

`C[C@@H]1C(=O)NCCN1C(=O)NC(c1ccc(F)c(Cl)c1F)C1CC2(CC2)C1` (single isomer, unassigned) [Example 28A, (2R)—N—((R or S)-(3-chloro-2,4-difluorophenyl)(spiro[2.3]hexan-5-yl)methyl)-2-methyl-3-oxopiperazine-1-carboxamide] came in with an IC50 of 2.65 nM.

`C[C@@H]1C(=O)NCCN1C(=O)NC(c1ccc(F)c(Cl)c1F)C1CC2(CC2)C1` (single isomer, unassigned) [Example 28B, (2R)—N—((S or R)-(3-chloro-2,4-difluorophenyl)(spiro[2.3]hexan-5-yl)methyl)-2-methyl-3-oxopiperazine-1-carboxamide]: it took 191 nM to reach half-maximal inhibition (IC50).

Take `C[C@@H]1C(=O)NCCN1C(=O)NC(c1ccc(F)c(Cl)c1F)[C@H]1C[C@H](C(F)F)C1` (single isomer, unassigned) [Example 29A]: the midpoint of inhibition, the IC50, lay at 8.91 nM.

In turn, `C[C@@H]1C(=O)NCCN1C(=O)NC(c1ccc(F)c(Cl)c1F)[C@H]1C[C@H](C(F)F)C1` (single isomer, unassigned) [Example 29B] registered an IC50 of 66.5 nM.

As to `C[C@@H]1C(=O)NCCN1C(=O)NC(c1ccc(F)c(Cl)c1F)C12CC(C(F)(F)F)(C1)C2` (single isomer, unassigned) [Example 30A], the IC50 was found to be 281 nM.

Turning to `C[C@@H]1C(=O)NCCN1C(=O)NC(c1ccc(F)c(Cl)c1F)C12CC(C(F)(F)F)(C1)C2` (single isomer, unassigned) [Example 30B], the IC50 was 3.12 nM.

As to `C[C@@H]1C(=O)NCCN1C(=O)NC(c1ccc(F)c(Cl)c1F)C1CC(C)(C)C1` (single isomer, unassigned) [Example 31A, (2R)-N-((R or S)-(3-chloro-2,4-difluoro-phenyl)(3,3-dimethyl-cyclobutyl)methyl)-2-methyl-3-oxopiperazine-1-carboxamide], the IC50 was 0.74 nM.

Consider `C[C@@H]1C(=O)NCCN1C(=O)NC(c1ccc(F)c(Cl)c1F)C1CC(C)(C)C1` (single isomer, unassigned) [Example 31B, (2R)-N-((S or R)-(3-chloro-2,4-difluoro-phenyl)(3,3-dimethyl-cyclobutyl)methyl)-2-methyl-3-oxopiperazine-1-carboxamide], for which the IC50 is 71 nM.

`C[C@@H]1C(=O)NCCN1C(=O)NC(c1ccc(C(F)(F)F)nc1)C1CC(C)(C)C1` (single isomer, unassigned) [Example 33A, (2R)-N-((R or S)-(3,3-dimethylcyclobutyl)(6-(trifluoromethyl)pyridin-3-yl)methyl)-2-methyl-3-oxopiperazine-1-carboxamide] displayed an IC50 of 135 nM.

As for `C[C@@H]1C(=O)NCCN1C(=O)NC(c1ccc(C(F)(F)F)nc1)C1CC(C)(C)C1` (single isomer, unassigned) [Example 33B, (2R)-N-((S or R)-(3,3-dimethylcyclobutyl)(6-(trifluoromethyl)pyridin-3-yl)methyl)-2-methyl-3-oxopiperazine-1-carboxamide], the IC50 came to 3590 nM.
